Test results: the NIST ThermoML archive (doi:10.1016/j.jct.2013.03.013)
Where “and” joins values, the source holds several entries; their conditions need not be identical. Equal values may be shown once. Numbers after ± are expanded uncertainties.

Conditions: Liquid, Vibrating wire viscometry

F/C=C/C(F)(F)F [trans-1,3,3,3-tetrafluoropropene]
Conditions | viscosity [mPa·s]
243.16 K, 61 kPa | 0.3906 ± 0.0092
243.16 K, 1000 kPa | 0.395 ± 0.0093
243.16 K, 3000 kPa | 0.4028 ± 0.0095
243.16 K, 5000 kPa | 0.4116 ± 0.0096
243.16 K, 10000 kPa | 0.4321 ± 0.01
243.16 K, 15000 kPa | 0.4532 ± 0.01
243.16 K, 20000 kPa | 0.4742 ± 0.011
243.16 K, 25000 kPa | 0.4951 ± 0.011
243.16 K, 30000 kPa | 0.517 ± 0.012
253.16 K, 97 kPa | 0.3409 ± 0.0083
253.16 K, 1000 kPa | 0.3462 ± 0.0084
253.16 K, 3000 kPa | 0.3538 ± 0.0086
253.16 K, 5000 kPa | 0.3613 ± 0.0087
253.16 K, 10000 kPa | 0.381 ± 0.0091
253.16 K, 15000 kPa | 0.3999 ± 0.0094
253.16 K, 20000 kPa | 0.4192 ± 0.0098
253.16 K, 25000 kPa | 0.4374 ± 0.01
253.16 K, 30000 kPa | 0.4554 ± 0.01
263.16 K, 148 kPa | 0.2942 ± 0.0075
263.16 K, 1000 kPa | 0.3043 ± 0.0077
263.16 K, 3000 kPa | 0.3119 ± 0.0078
263.16 K, 5000 kPa | 0.3189 ± 0.0079
263.16 K, 10000 kPa | 0.3358 ± 0.0082
263.16 K, 15000 kPa | 0.3534 ± 0.0085
263.16 K, 20000 kPa | 0.3707 ± 0.0089
263.16 K, 25000 kPa | 0.3875 ± 0.0092
263.16 K, 30000 kPa | 0.4047 ± 0.0095
273.15 K, 217 kPa | 0.2572 ± 0.0068
273.15 K, 1000 kPa | 0.2626 ± 0.0069
273.15 K, 3000 kPa | 0.2702 ± 0.007
273.15 K, 5000 kPa | 0.2776 ± 0.0072
273.15 K, 10000 kPa | 0.2949 ± 0.0075
273.15 K, 15000 kPa | 0.3127 ± 0.0078
273.15 K, 20000 kPa | 0.3284 ± 0.0081
273.15 K, 25000 kPa | 0.3451 ± 0.0084
273.15 K, 30000 kPa | 0.3616 ± 0.0087
283.14 K, 308 kPa | 0.2271 ± 0.0063
283.14 K, 1000 kPa | 0.2318 ± 0.0064
283.14 K, 3000 kPa | 0.2383 ± 0.0065
283.14 K, 5000 kPa | 0.2442 ± 0.0066
283.14 K, 10000 kPa | 0.2602 ± 0.0069
283.14 K, 15000 kPa | 0.2755 ± 0.0071
283.14 K, 20000 kPa | 0.2908 ± 0.0074
283.14 K, 25000 kPa | 0.3061 ± 0.0077
283.14 K, 30000 kPa | 0.3203 ± 0.0079
293.15 K, 428 kPa | 0.2016 ± 0.0059
293.15 K, 1000 kPa | 0.2035 ± 0.0059
293.15 K, 3000 kPa | 0.2097 ± 0.006
293.15 K, 5000 kPa | 0.216 ± 0.0061
293.15 K, 10000 kPa | 0.2315 ± 0.0064
293.15 K, 15000 kPa | 0.2459 ± 0.0066
293.15 K, 20000 kPa | 0.2606 ± 0.0069
293.15 K, 25000 kPa | 0.2741 ± 0.0071
293.15 K, 30000 kPa | 0.2877 ± 0.0073
303.15 K, 579 kPa | 0.179 ± 0.0055
303.15 K, 1000 kPa | 0.1816 ± 0.0056
303.15 K, 3000 kPa | 0.1875 ± 0.0056
303.15 K, 5000 kPa | 0.1933 ± 0.0057
303.15 K, 10000 kPa | 0.2085 ± 0.006
303.15 K, 15000 kPa | 0.2227 ± 0.0062
303.15 K, 20000 kPa | 0.2364 ± 0.0064
303.15 K, 25000 kPa | 0.2495 ± 0.0067
303.15 K, 30000 kPa | 0.2625 ± 0.0069
313.14 K, 767 kPa | 0.1587 ± 0.0052
313.14 K, 1000 kPa | 0.1601 ± 0.0052
313.14 K, 3000 kPa | 0.1663 ± 0.0053
313.14 K, 5000 kPa | 0.1728 ± 0.0054
313.14 K, 10000 kPa | 0.1873 ± 0.0056
313.14 K, 15000 kPa | 0.2008 ± 0.0059
313.14 K, 20000 kPa | 0.2151 ± 0.0061
313.14 K, 25000 kPa | 0.2283 ± 0.0063
313.14 K, 30000 kPa | 0.2401 ± 0.0065
323.16 K, 998 kPa | 0.1405 ± 0.0049
323.16 K, 3000 kPa | 0.1479 ± 0.005
323.16 K, 5000 kPa | 0.1539 ± 0.0051
323.16 K, 10000 kPa | 0.1687 ± 0.0053
323.16 K, 15000 kPa | 0.183 ± 0.0056
323.16 K, 20000 kPa | 0.1968 ± 0.0058
323.16 K, 25000 kPa | 0.2093 ± 0.006
323.16 K, 30000 kPa | 0.221 ± 0.0062
333.16 K, 1277 kPa | 0.1239 ± 0.0047
333.16 K, 3000 kPa | 0.1305 ± 0.0048
333.16 K, 5000 kPa | 0.1373 ± 0.0049
333.16 K, 10000 kPa | 0.1527 ± 0.0051
333.16 K, 15000 kPa | 0.1671 ± 0.0053
333.16 K, 20000 kPa | 0.1796 ± 0.0055
333.16 K, 25000 kPa | 0.1914 ± 0.0057
333.16 K, 30000 kPa | 0.2033 ± 0.0059
343.16 K, 1611 kPa | 0.1085 ± 0.0045
343.16 K, 3000 kPa | 0.115 ± 0.0046
343.16 K, 5000 kPa | 0.1227 ± 0.0047
343.16 K, 10000 kPa | 0.1383 ± 0.0049
343.16 K, 15000 kPa | 0.1527 ± 0.0051
343.16 K, 20000 kPa | 0.1657 ± 0.0053
343.16 K, 25000 kPa | 0.1773 ± 0.0055
343.16 K, 30000 kPa | 0.1888 ± 0.0057
353.16 K, 2008 kPa | 0.0939 ± 0.0043
353.16 K, 3000 kPa | 0.0993 ± 0.0044
353.16 K, 5000 kPa | 0.1072 ± 0.0045
353.16 K, 10000 kPa | 0.1241 ± 0.0047
353.16 K, 15000 kPa | 0.139 ± 0.0049
353.16 K, 20000 kPa | 0.1516 ± 0.0051
353.16 K, 25000 kPa | 0.1638 ± 0.0053
353.16 K, 30000 kPa | 0.1749 ± 0.0054
363.16 K, 2475 kPa | 0.079 ± 0.0043
363.16 K, 3000 kPa | 0.0833 ± 0.0042
363.16 K, 5000 kPa | 0.0932 ± 0.0043
363.16 K, 10000 kPa | 0.1125 ± 0.0045
363.16 K, 15000 kPa | 0.1273 ± 0.0047
363.16 K, 20000 kPa | 0.1401 ± 0.0049
363.16 K, 25000 kPa | 0.1516 ± 0.0051
363.16 K, 30000 kPa | 0.1622 ± 0.0052
373.17 K, 3026 kPa | 0.0632 ± 0.0042
373.17 K, 5000 kPa | 0.0809 ± 0.0042
373.17 K, 10000 kPa | 0.1013 ± 0.0044
373.17 K, 15000 kPa | 0.1155 ± 0.0046
373.17 K, 20000 kPa | 0.1286 ± 0.0048
373.17 K, 25000 kPa | 0.1403 ± 0.0049
373.17 K, 30000 kPa | 0.1514 ± 0.0051

FCC(F)(F)F [1,1,1,2-tetrafluoroethane]
viscosity
Conditions | 1000 kPa | 2000 kPa | 3000 kPa | 5000 kPa | 10000 kPa | 15000 kPa | 20000 kPa | 25000 kPa | 30000 kPa
253.14 K | 0.3564 ± 0.0086 mPa·s | – | – | 0.3729 ± 0.0089 mPa·s | 0.3937 ± 0.0093 mPa·s | 0.4141 ± 0.0097 mPa·s | 0.4329 ± 0.01 mPa·s | 0.4553 ± 0.01 mPa·s | 0.4776 ± 0.011 mPa·s
253.16 K | – | – | 0.3626 ± 0.0087 mPa·s | – | 0.3914 ± 0.0093 mPa·s | – | – | – | –
273.15 K | 0.2713 ± 0.007 mPa·s | – | 0.2791 ± 0.0072 mPa·s | 0.2873 ± 0.0073 mPa·s | 0.3052 ± 0.0077 mPa·s and 0.3031 ± 0.0076 mPa·s | 0.3211 ± 0.008 mPa·s | 0.3387 ± 0.0083 mPa·s | 0.357 ± 0.0086 mPa·s | 0.3759 ± 0.009 mPa·s
293.15 K | 0.2115 ± 0.006 mPa·s | – | 0.2177 ± 0.0061 mPa·s | 0.2227 ± 0.0062 mPa·s | 0.2398 ± 0.0065 mPa·s and 0.2412 ± 0.0065 mPa·s | 0.2556 ± 0.0068 mPa·s | 0.2725 ± 0.0071 mPa·s | 0.287 ± 0.0073 mPa·s | 0.3023 ± 0.0076 mPa·s
313.14 K | – | 0.1653 ± 0.0053 mPa·s | 0.1693 ± 0.0054 mPa·s | 0.1758 ± 0.0055 mPa·s | 0.1918 ± 0.0057 mPa·s and 0.1929 ± 0.0057 mPa·s | 0.2068 ± 0.006 mPa·s | 0.2228 ± 0.0062 mPa·s | 0.236 ± 0.0064 mPa·s | 0.2501 ± 0.0067 mPa·s
333.16 K | – | 0.1247 ± 0.0047 mPa·s | 0.1296 ± 0.0048 mPa·s | 0.1373 ± 0.0049 mPa·s | 0.1537 ± 0.0051 mPa·s and 0.1543 ± 0.0051 mPa·s | 0.1703 ± 0.0054 mPa·s | 0.1839 ± 0.0056 mPa·s | 0.1966 ± 0.0058 mPa·s | 0.2089 ± 0.006 mPa·s
353.15 K | – | – | – | 0.1034 ± 0.0044 mPa·s | 0.1246 ± 0.0047 mPa·s | – | – | – | –
353.16 K | – | – | 0.0916 ± 0.0043 mPa·s | 0.1032 ± 0.0044 mPa·s | 0.124 ± 0.0047 mPa·s | 0.1391 ± 0.0049 mPa·s | 0.1535 ± 0.0051 mPa·s | 0.1657 ± 0.0053 mPa·s | 0.1779 ± 0.0055 mPa·s

Cc1ccccc1 [toluene]
viscosity [mPa·s]
Conditions | 273.13 K | 298.15 K | 323.16 K | 343.16 K | 363.16 K
1000 kPa | 0.7735 ± 0.017 | 0.5573 ± 0.013 | 0.4222 ± 0.0099 | 0.3495 ± 0.0085 | 0.2941 ± 0.0075
5000 kPa | 0.7996 ± 0.017 | 0.5744 ± 0.013 | 0.4359 ± 0.01 | 0.3611 ± 0.0087 | 0.3047 ± 0.0077
10000 kPa | 0.832 ± 0.018 | 0.5969 ± 0.013 | 0.4531 ± 0.01 | 0.3757 ± 0.009 | 0.3173 ± 0.0079
20000 kPa | 0.8994 ± 0.019 | 0.6394 ± 0.014 | 0.4894 ± 0.011 | 0.4054 ± 0.0096 | 0.3436 ± 0.0084
30000 kPa | 0.969 ± 0.021 | 0.6892 ± 0.015 | 0.5242 ± 0.012 | 0.4367 ± 0.01 | 0.3694 ± 0.0089
